# Experimental data taken from US20100168016A1, “DIAGNOSIS AND TREATMENT OF DISEASES CAUSED BY MISFOLDED PROTEINS” (THE JACKSON LABORATORY, priority 2007, published 2010).
# Residues, ends and D or L forms follow the SMILES beside them. *: point of attachment. Cbz = O=C(OCc1ccccc1)*
# What was measured:
# [1] = tested on: HA-ANKRD16^CAST-transfected COS-7 cells; test: subcellular localization of ANKRD16 in transfected COS-7 cells; type: cell-based, monkey; conditions: for relocalization of ANKRD16: 10 μM MG132 or 10 μM epoximicin or 3-MA, 24 hours after transfection, within 12 hours of treatment
# Description: Cellular localization of full-length ANKRD16 was determined by transfection of epitope-tagged full-length ANKRD16^CAST into monkey kidney fibroblast COS-7 cells and human alveolar epithelial A549 cells. The ANKRD16 coding sequence was amplified by polymerase chain reaction from cDNA by using Pfu DNA polymerase (Stratagene), purified by agarose gel electrophoresis and ligated in-frame with the HA-tag into the pcDNA3 vector. This clone encoded a fusion ANKRD16 with the tag at its C-terminus. All DNA constructs were confirmed by sequencing. COS-7 and A549 cells were maintained in Dulbecco's modified Eagle's medium (Sigma-Aldrich). All cells were grown at 37° C. in 5% CO2 and supplemented with 10% (vol/vol) fetal calf serum, 100 U/ml penicillin and 100 μg/ml streptomycin. Transfections were performed using Lipofectamine 2000 transfection reagent (Invitrogen, USA) according to the manufacturer's protocol. Cells were cultured for 48 h after transfection.
# To determine if the induction of autophagy changes the intracellular localization of ANKRD16, we treated transfected cells with rapamycin to induce macroautophagy (data not shown) or performed serum starvation experiments (known to induce chaperone-mediated autophagy after 18 hours) on transfected cells (data not shown). COS-7 cells were transfected with full-length HA-ANKRD16^CAST constructs. […] Nor was co-localization observed with endosome, autophagosome or lysosome markers (data not shown) in the presence or absence of rapamycin or proteasome inhibitors administered as described below.
# Several proteins that regulate protein folding and/or the disposal of misfolded proteins are induced or change their subcellular localization in response to misfolded protein stress. To examine if subcellular localization changes with intracellular accumulation of misfolded proteins, we treated full-length HA-ANKRD16^CAST-transfected COS-7 cells 24 hours after transfection with proteosome inhibitors, 10 μM MG132 (Sigma-Aldrich) or 10 μM epoximicin (Sigma-Aldrich) or blocked autophagy with 3-methyladenine (3-MA; Sigma-Aldrich). […]
# For immunostaining the cells were fixed with 4% paraformaldehyde (PFA) at room temperature for 5 min, then incubated with anti-ubiquitin, anti-HA, anti-r-tubulin, and anti-vimentin antibodies overnight at 4° C. […] The fluorescence was detected under a fluorescence microscope.
# [2] = tested on: mouse embryonic fibroblasts from CASTEi/J mice; test: aggresome localization of ANKRD16 in fibroblasts under proteasomal stress; type: cell-based; conditions: 1 μM epoximicin for 18 hours
# Description: Mouse embryonic fibroblasts were isolated from CASTEi/J mice. To isolate embryonic fibroblasts, CASTEi/J mice were paired for time of pregnancy. E13.5 day pregnant female mice for each of the strains were sacrificed. The time point E0.5 is the morning of finding a plug after pairing a female with a male. The uteri were removed and placed into a dish with PBS and washed. The embryos were isolated free of extraembryonic tissue and washed in PBS. Each embryo was placed into a separate 14 ml tube containing 3 ml of media (DMEM, 10% FBS) and homogenized for 2 seconds. The homogenized tissues were put into 145 mm tissue culture plates (e.g. CellStar from USA Scientific cat.#5663-9160) containing 20 ml of media (DMEM, 10% FBS). The cells were incubated at 37° C. in 5% CO2 until cells were confluent, which was on average from 5 to 7 days. The cells were expanded according to standard tissue culture methods using trypsin and the same passage number for each cell line was used for the experiment. To stress the fibroblast they were treated for 18 hours with 1 μM epoximicin, a proteosome inhibitor (Genaxxon). Then untreated and treated cells were fixed, visualized for ANKRD16 expression using indirect immunofluorescence with polyclonal ANKRD16 rabbit antibody as primary antibody and Alexa555-conjugated anti-rabbit IgG (Invitrogen, Molecular Probes) as secondary antibody. […]
Structure (SMILES),relocalization of ANKRD16 [1],localization of ANKRD16 [2],formation of the aggresome structure ([1]; 10 μg/ml nocodazole)
CC(C)C[C@@H](C=O)NC(=O)[C@H](CC(C)C)NC(=O)[C@H](CC(C)C)NC(=O)OCc1ccccc1 [MG132] (Cbz-Leu-Leu-Leu-aldehyde),Relocalization of ANKRD16 to a juxtanuclear structure,–,–
Cn1cnc(N)c2ncnc1-2 [3-methyladenine],Relocalization of ANKRD16 to a juxtanuclear structure,–,–
CC[C@H](C)[C@H](NC(=O)[C@H]([C@@H](C)CC)N(C)C(C)=O)C(=O)N[C@H](C(=O)N[C@@H](CC(C)C)C(=O)[C@@]1(C)CO1)[C@@H](C)O [epoximicin],Relocalization of ANKRD16 to a juxtanuclear structure,relocalized to the aggresome,–
COC(=O)Nc1nc2ccc(C(=O)c3cccs3)cc2[nH]1 [nocodazole],–,–,disrupted
